These results are taken from patent publication US12502372B2, “(9beta-H)-pimarane mother nucleus diterpenoid compound with anti-colon cancer activity and derivative thereof, and preparation method thereof” (NANJING UNIVERSITY OF CHINESE MEDICINE, priority 2023, dated 2025).

Each structure is given as a SMILES string. Where only a bound is given, the exact number is not on record here.

The test system of one series is HT-29 colon cancer cells. In words: MTT proliferation inhibition (cell viability) on colon cancer cell line HT-29. The class given is cell-based. As to conditions: for IC50: Homo sapiens, HT-29 colon cancer cell line, 24 hours with drug, MTT method, OD 570 nm, read-out: IC50 ± SD, HT-29. As to the method:
(§1) Colon cancer cell lines HT-29 and SW620 (cell bank of Chinese Academy of Sciences) were cultured in a DMEM culture solution containing 10% fetal bovine serum (Gibco Company of America) at 37° C. under 5% CO2. During subculturing, a dish of tumor cells was taken out first, the culture solution was removed, and 3 mL of PBS was added to wash the cells twice; 1 mL of trypsin was added for digestion, 1 mL of culture solution was added after 2 minutes to stop the digestion, and the mixture was centrifuged at 1000 r/min and room temperature for 5 minutes; and a supernatant was removed, 1 mL of DMEM culture medium containing 10% fetal bovine serum was added, and the mixture was resuspended to obtain a cell suspension.
(§2) Different volumes of DMEM culture media were added to dilute the compounds into different concentrations. Meanwhile, a DMEM culture medium containing 0.1% DMSO was used as a negative control.
(§3) Tumor cells were suspended in a culture medium, inoculated into a 96-well plate (100 μL/well) by a cell density of 6×10^3, and cultured at 37° C. under 5% CO2 for 24 hours. In a logarithmic growth period of the tumor cell lines, different concentrations of compounds were added to culture the cells at 37° C. under 5% CO2 for 24 hours.
(§4) After 24 hours of interaction between the drugs and the tumor cells, 20 μL of MTT solution (5 mg/mL) was added into each well to incubate the cells in a sterile incubator for 3 hours. A supernatant was removed completely, and 150 μL of DMSO was added into each well to react on a shaker for 30 minutes, so as to dissolve bluish violet formazan crystals. An OD value was determined at a wavelength of 570 nm with a microplate reader. IC50 (median inhibitory concentration) values of the compounds were calculated by GraphPad Prism 8 software, and 5-FU was used as a positive control.
Background: Tetrazolium assays rely on reduction of a dye to a coloured formazan, in cell work by metabolically active cells.

Series [1] has as its system colon cancer cell line SW620. Description: MTT proliferation inhibition (cell viability) on colon cancer cell line SW620. Format: cell-based. As to conditions: for IC50: Homo sapiens, SW-620, SW620 colon cancer cell line, 24 hours with drug, MTT method, OD 570 nm, read-out: IC50 ± SD, SW620. As to the method: as §1, §2, §3, §4

With `COC(=O)CC[C@]12CO[C@H](C[C@H]3c4occc4C(=O)C[C@H]31)[C@H]2[C@@H](C)C(=O)O` [Compound 2, secoicacinlivitholide G], the “inhibiting effect on HT-29 relative to positive drug 5-FU” value in the series on HT-29 colon cancer cells (HT-29, compared with 5-FU) is listed as “about three times that of the positive drug 5-FU”. In the series with HT-29 colon cancer cells (HT-29, stated stronger than positive drug 5-FU), the “anti-proliferation effect on HT-29 (in words)” value is “remarkable anti-proliferation effects”. In addition, the IC50 amounted to 3.12 ± 1.63 µM with HT-29 colon cancer cells and 9.92 ± 1.68 µM in series [1]. In addition, the “anti-proliferation effect on SW620 (in words)” value in series [1] (SW620, stated stronger than positive drug 5-FU) is reported as “remarkable anti-proliferation effects”.

For the compound `C[C@@H](C(=O)O)[C@@H]1[C@H]2C[C@H]3c4occc4C(=O)C[C@H]3[C@]1(CCC(=O)O)CO2` [Compound 1, secoicacinlivitholide F], the IC50 in the series with HT-29 colon cancer cells was more than 20 µM.

In the case of `O=c1[nH]cc(F)c(=O)[nH]1` [Compound 5-FU, 5-fluorouracil, reference compound], the IC50 in the series with HT-29 colon cancer cells is 9.18 ± 1.61 µM; in series [1], 14.2 ± 1.43 µM.

Broadly, the IC50 is the midpoint of a concentration-inhibition curve.
